Source: a melting point compilation (Tetko et al.; mined from patent text by program, amines drawn as free bases though some values may be those of a salt)

SMILES	melting point [°C]
Cc1nc(-c2cccc(C(F)(F)F)c2)oc1COc1ccc(CCC(=O)O)cc1	134 to 135
Cc1oc(-c2ccccc2)nc1COc1ccc2cc(Cn3cc(CCC(=O)O)c(-c4ccccc4)c3)ccc2c1	122 to 123
O=c1[nH]c2ccc(Cl)cc2n1C1CCCCC1	206 to 208
Cc1c(N)c(F)cc2c(=O)c(C(=O)O)cn(-c3cc(O)c(F)cc3F)c12	> 280
c1ccc(-c2ncnn2-c2ccccc2)cc1	85 to 87
Oc1c(I)cc(Br)cc1I	122 to 124
CC(C)(O)C(=O)Nc1ccc(Sc2ccc(NS(C)(=O)=O)cc2)cc1Cl	138 to 140
Cc1cccc2cc(C(=O)N(C)C)c(C=CNc3ccc(F)cc3)nc12	172 to 173
Cc1ccnc2c1C(=O)c1c(C)cc(=O)[nH]c1C2=O	258 to 261
Nc1ncc(C2OC(CO)C(O)C2O)c(=O)[nH]1 (centres undefined)	216 to 217
N#CC(=Cc1ccc2[nH]ccc2c1)S(=O)(=O)c1ccc(OC(F)(F)F)cc1	171 to 175
CCOC(=O)c1ncn2c1C(C)N=C(c1ccccc1F)c1cc(C#C[Si](C)(C)C)ccc1-2 (centres undefined)	186 to 187
CCOC(=O)c1cn(C2CC2)c2c(C)c(N3CCN(C)CC3)c(F)c(C)c2c1=O	146 to 147
Cc1cc(C)n2ncc([N+](=O)[O-])c2n1	156 to 157
COc1ccc(C(=O)Nc2ccccc2)cc1Nc1cccc(Cl)c1	168 to 170
CNC(=O)ON=C1N=C(C2CCCCC2)C(C)(C)S1	158 to 160
CCOC(=O)c1[nH]c2ccc(Cl)cc2c1S(=O)(=O)c1ccccc1	201 to 202
Cc1nc(N2CCN(CC3CC3(F)F)C2=O)sc1C(=O)NCc1ncco1 (centres undefined)	156 to 158
COc1ccc(NC(=O)c2ccc(Cl)c(Cl)c2)cc1NCc1cccs1	185 to 188
CN1CCN(c2nc(C(F)(F)F)cs2)CC1	62
O=C1c2c(O)cccc2C(SCC(O)CO)c2cccc(O)c21 (centres undefined)	154 to 155
O=C(O)CCC(=O)N1CCc2cc(S(=O)(=O)N3CCN(c4cccc(C(F)(F)F)c4)CC3)ccc21	274 to 276
Cn1cc(-c2cccc(O)c2)c(=O)c(C2CCCCC2)c1	155 to 165

SMILES	melting point [°C]
COc1nc(NC(COC(=O)NC(C)C)C(C)(C)C)nc(OC)c1[N+](=O)[O-] (centres undefined)	110
CC(C)(C)c1cc(-c2nc3n(c2CO)CCS3)cc(C(C)(C)C)c1O	227 to 229
Cc1cc(SCc2ccnc3[nH]c(-c4ccc(C(F)(F)F)cc4)nc23)ccc1OCC(=O)O	239 to 241
ClCc1coc(-c2ccc3ccccc3c2)n1	116 to 117
COC12CC(CN3CCC(c4c[nH]c5ccccc45)CC3)CN(C)C1Cc1c[nH]c3cccc2c13 (centres undefined)	222 to 227
O=C(NCCSCc1cccc(C(F)(F)F)c1)c1c(Cl)cccc1Cl	54 to 55
CCOc1ccc2[nH]cc(/C(C#N)=C/c3cccnc3)c2c1	196
Nc1nc(N)nc(N2CCNCC2)n1	262 to 268
COc1ccc(-c2cc(CN3CCN(C)CC3)c(=O)n(CC=Cc3ccc(Cl)cc3)n2)cc1F	124 to 126
Cc1nc(-c2cc3cc(OCCNC[C@H](O)COc4ccccc4Cl)ccc3o2)no1	106 to 108
NC(=O)c1c(C(F)(F)F)ccc(Cl)c1Cl	118 to 120
CCN(CC)CCn1cc2c(c1)-c1ccc(Cl)cc1C(c1ccccc1Cl)=NC2	130 to 131
COc1ccc(CN(CC2CCOCC2)S(=O)(=O)c2ccc(Cl)cc2)cc1C(=O)O	158 to 159
CN1CC(=O)N(C)C1=NC(=O)Nc1cccc(Cl)c1	134 to 137
Oc1ccc(Nc2cnc3cnc(-c4ccc(O)cc4)nc3c2)cc1	168 to 170
O=C1c2ccccc2C(=O)N1CCOCCOCCOCCOCCOCCN1C(=O)c2ccccc2C1=O	124 to 126
CC(C)(CCn1ccnc1)NCC(O)c1ccc(O)c(CO)c1 (centres undefined)	135 to 137
COc1ccccc1NC(=O)Nc1ccc(N2CCN(C(=O)Nc3cc(OCCO)ccc3Cl)CC2)cc1	179 to 180
COc1cc2c(cc1OC)C(=O)C(c1ccc3c(c1)OCO3)CC2 (centres undefined)	168 to 170
Cc1ccc(COc2ccc(C=NCc3ccco3)cc2)cc1	71
O=C1N(c2cc(Cl)nc(Cl)c2)C(=O)C2(Cc3ccc(Br)cc3)CCCN12 (centres undefined)	76.3
NC(c1ccccc1)c1nc2ccccc2s1 (centres undefined)	68 to 70

Other lines, results leading:

melting point [°C]	SMILES
121 to 124	C=COc1nc2c(c3ccccc13)c1cc(Cl)ccc1n2C
135 to 136	N#CCCNC(=O)C1=CC(CF)(CF)Oc2ccc(C(F)(F)C(F)(F)C(F)(F)F)cc21
268 to 269	CCN1c2ncccc2C(=O)N(C)c2ccc(-c3c[nH]c(C#N)c3)nc21
179 to 183	NNc1ccc(S(=O)(=O)c2ccc(NN)cc2)cc1
159 to 161	ClC(Cl)=CCOc1cc(Cl)c(OCCCOc2ccc(-c3nn[nH]n3)cc2)c(Cl)c1
117	C=CCn1c(C)nc2c3c(ccc21)[C@@H](OCCF)[C@H](O)[C@@H](c1ccccc1)O3
164 to 165	CC(C)N1Cc2cccnc2N(c2ccccc2)C1=O
207 to 209	O=c1[nH]c2cc(F)c([N+](=O)[O-])cc2o1
160 to 164	C[C@H](NC(=O)[C@H](Cc1ccccc1)NC(=O)OCc1ccccc1)C(=O)O
127 to 128	COc1ccc(C(=CC(=O)N2CCOCC2)c2ccc(-c3ccccc3)cc2)cc1OC
153 to 154	CCOC(=O)C(=O)Nc1c([N+](=O)[O-])cc(Br)c2c1CN(C)C2
179	CCCCc1nc2c(=O)[nH]ccc2n1Cc1ccc(-c2ccccc2C#N)cc1
87 to 89	CCCCCCCCCCOc1ccc(-c2ccc(CCC(C)O)cc2)cc1 (single isomer, unassigned; (+))
105	Nc1ccc(C2(c3ccc(F)cc3)OCCO2)cc1[N+](=O)[O-]
106 to 108	COc1cc(C(C)C)ccc1C1(NC(=O)c2ccccc2)C(=O)c2ccccc2C1=O
99 to 101	O=C(O)COc1cccc(-c2ccc(Cl)c(C(=O)NCC34CC5CC(CC(C5)C3)C4)c2)c1
63.5 to 64	CC(C)(C)OC(=O)NC(CCOP(=O)(Oc1ccccc1)Oc1ccccc1)C(=O)OCc1ccccc1 (racemic)
130	CCOC(=O)C1=C(N2CCCC2)N=C(C)C(C(C)=O)C1c1cccc([N+](=O)[O-])c1 (centres undefined)
158 to 160	CN(C)N=C(CCC(=O)O)c1ccc(-c2ccc(Cl)cc2)cc1
180 to 182	COC(=O)c1ccc(NC(=O)c2cc(C(C)C)c(C(C)C)s2)cc1
95 to 105	O=C(O)C(CCc1ccccc1)CC(CCc1ccccc1)C(=O)O (centres undefined)
84 to 85	C=CCN1C(C)(C)CC(O)CC1(C)C
> 280	O=C(O)c1ccc2oc3ccccc3c(=O)c2c1
124	c1ccc(C2NCCc3ccccc32)nc1 (racemic)
209 to 211	Cc1c(C=NO)c2cc(Br)ccc2n1-c1ccc(O)cc1
81 to 82	COc1ccc(N=C(C)c2ccccc2)cc1
135 to 136	Cc1cc(Cn2c(-c3ccccc3)nc(Cl)c2C=O)ccc1OCc1ccccc1

melting point [°C]	SMILES
48 to 51	CN(CCc1ccccc1)C(=O)Cc1ccc(OCc2ccccc2)c(/C=C/C(=O)O)c1
94 to 97	CC(=O)c1ccc(OCc2ccccc2)c(CS(C)(=O)=O)c1
207 to 209	CC1COCc2nc3cnc4cc(Br)ccc4c3n21 (centres undefined)
131 to 133	CCCCNC(=O)S(=O)(=O)Nc1sc(CC(C)C)cc1-c1ccc(Cn2c(-c3ccccc3)nc(OC)c2C=O)cc1
82 to 83	O=S(=O)(c1ccccc1)n1ccnc1
244 to 246	COc1ccc(CC(C)(N)C(=O)O)cc1OC (centres undefined)
60 to 61	COC(=O)c1cncn1C1c2ccccc2C=CC1(C)C (centres undefined)
178 to 180	COC(=O)c1ccc(C(C(N)=O)C(C)c2cc([N+](=O)[O-])ccc2N2CCCCC2)cc1 (centres undefined)
92 to 93	CC(C)(c1ccc(OS(=O)(=O)c2ccccc2)cc1)c1ccc(OS(=O)(=O)c2ccccc2)cc1
272 to 275	N#Cc1ccc(-c2ccc(N3CCOCC3)cc2)[nH]c1=O
> 250	CC(C)n1nc(-c2c(-c3ccccc3)nn3ccc(O)cc23)ccc1=O
307	Cc1cc(-c2cc(C(F)F)n3ncc(C(=O)Nc4nc(C)c(S(N)(=O)=O)s4)c3n2)ccc1C(F)(F)F
126 to 127	CCc1cc(C(C)=O)c(O)cc1OCCCCCCc1nnn[nH]1
112 to 115	O[C@@H]1CNC[C@H]1Oc1cccc2ccccc12 (relative stereo)
135 to 138	COc1ccc(N(CCN2CCC(C(=O)c3ccc(F)cc3)CC2)C(=O)c2ccc(N)cc2)c(OC)c1
74	CC(C)(OCc1cc2cc(Cl)ccc2n1S(=O)(=O)c1ccc2ncsc2c1)C(=O)O
144 to 146	O=C(O)C(Oc1ccccc1)c1ccc(Oc2ccccc2)cc1 (centres undefined)
166 to 168	COc1ccc(CNn2nnc3c(-c4ccco4)ncnc32)cc1
129	CCOC(=O)C1=C(N(C)C)N=C(C)C(C(=O)OCC)C1c1ccccc1C#N (centres undefined)
222 to 224	Nc1nc2n(C3OC(CO)C(O)C3O)[nH]cc-2c(=S)n1 (centres undefined)
74.9	O=[N+]([O-])c1cc(C(F)(F)F)ccc1NCCO
97	CC(=O)N1CCC(C(=O)c2ccc(F)cc2F)CC1
235 to 255	O=C1CN2C(=O)C(c3ccccc3)(c3ccccc3)c3cccc(c32)N1
167 to 169	O=c1c2ccccc2cc(Br)c2ccncc12
135	COc1cccc(NC(=O)C(N)=S)c1
77	O=C(Cc1ccc(O)c(Cl)c1)Oc1cc(Cl)c(Cl)cc1Cl
> 260	CCOC(=O)CN1C[C@@H](C(N)=O)N(CC(=O)OCC)C[C@@H]1C(N)=O
